From patent US20250197359A1, “CANNABINOID RECEPTOR MODULATING COMPOUNDS” (The U.S.A., as Represented by the Secretary, Department of …, priority 2022, published 2025) come the findings set out here.

The structures appear in SMILES notation.

Usually IC50 stands for the concentration at which inhibition is half-maximal. Read a low IC50 as greater potency. Usually Ki stands for the equilibrium dissociation constant of an inhibitor or competing ligand from its target.

One test has as its target T1, Brain/CB1 (Mus musculus, UniProt P47746).
T1 construct: from tissue; host or cells: mouse brain membranes
The test can be described thus: Functional GTPγS binding, Brain/CB1. Format: biochemical. From the text: Furthermore, the intermediates urea compounds 8a-m were chlorinated with phosphorus oxychloride in the presence of DIPEA base to form imidoyl chloride intermediate and reacted with acetamidine hydrochloride/methyl carbamimidothioate iodide/methyl carbamimidoselenoate iodide and other amines to furnish the target compounds (10a-34b) (Scheme 2, FIG. 2, Scheme 5, FIG. 5). The urea derivatives were converted to the thiourea derivatives 9a-9d by employing sodium thiosulfate. Compound 8a-b, 8e-f were converted to corresponding thiourea by employing sodium thiosulfate dissolved in water dioxane mixture and the reaction was heated to 85° C. for 2 h. […] The binding constant for the synthesized compounds were determined by using radioligand binding assay in mouse brain membranes as well as the target compounds were evaluated in vitro at the human CB1 receptor, stably expressed into Chinese hamster ovary (CHO) cells as well as mouse brain membrane CB1.
For orientation: GTPγS is a poorly hydrolysed GTP analogue; its binding reports G protein activation.

Another test deals with CB1 (UniProt P21554). The test is described as follows: CB1 radioligand binding assay. The arrangement: species or system human. The following applies: read-out: Ki (CB1). The gist of the method:
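Radioligand binding to human CB1 stably expressed in CHO cells and to mouse brain membrane CB1 gave binding constants. For selected compounds, antagonism of CP55940-induced CB1 activation was measured in MPXNomad-CB1 HEK293 cells via cAMPNomad (cAMP) and ArresNomad (β-arrestin) fluorescent biosensors.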

The target of another test is iNOS (Mus musculus, UniProt P29477). The test is described as follows: Inducible NOS biochemical assay. As to conditions: for % Response (Inducible NOS): Mouse, 10 μM, criteria ≥ ±50%, preliminary data. From the text:
Biochemical assay results are presented as the percent inhibition of specific binding or activity (iNOS, CAMP, beta arrestin).

T1 sequence (P47746 whole entry): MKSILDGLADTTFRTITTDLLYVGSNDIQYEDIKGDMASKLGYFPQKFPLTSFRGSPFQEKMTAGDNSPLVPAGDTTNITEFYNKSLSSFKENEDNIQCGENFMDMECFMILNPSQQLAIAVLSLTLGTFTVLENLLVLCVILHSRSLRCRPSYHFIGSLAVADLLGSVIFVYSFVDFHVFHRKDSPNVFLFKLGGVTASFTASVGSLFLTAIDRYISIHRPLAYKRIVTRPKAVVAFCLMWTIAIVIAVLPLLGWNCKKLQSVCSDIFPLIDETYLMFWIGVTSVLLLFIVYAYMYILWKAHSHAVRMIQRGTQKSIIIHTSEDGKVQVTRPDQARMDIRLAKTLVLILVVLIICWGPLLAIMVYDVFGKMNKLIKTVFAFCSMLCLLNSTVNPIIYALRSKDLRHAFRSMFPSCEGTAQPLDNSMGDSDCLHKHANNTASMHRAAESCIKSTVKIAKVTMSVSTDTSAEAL

On to `C/C(N)=N\C(=N\S(=O)(=O)c1ccc(Cl)cc1)N1CCC(c2ccccc2)C(c2ccc(Cl)cc2)=N1` (stereo not drawn) [Compound 10a, (Z)—N—((E)-1-aminoethylidene)-3-(4-chlorophenyl)-N′-((4-chlorophenyl)sulfonyl)-4-phenyl-5,6-dihydropyridazine-1 (4H)-carboximidamide], for which, on Brain/CB1, the half-maximal inhibitory concentration (IC50) worked out at 0.138 µM. Moreover, at CB1, the inhibition constant (Ki) came to 0.076 µM. Besides, the “iNOS inhibition % Response” value on iNOS worked out at 39%.
The like results for `C/C(N)=N\C(=N\S(=O)(=O)c1ccc(OC(F)(F)F)cc1)N1CCC(c2ccccc2)C(c2ccc(Cl)cc2)=N1` (stereo not drawn) [Compound 10d, (Z)—N—((E)-1-aminoethylidene)-3-(4-chlorophenyl)-4-phenyl-N′-((4-(trifluoromethoxy)phenyl)sulfonyl)-5,6-dihydropyridazine-1 (4H)-carboximidamide] were, in that order, 0.104 µM, 0.0565 µM and 55%.
For `C/C(N)=N\C(=N\S(=O)(=O)c1ccc(C#N)cc1)N1CCC(c2ccccc2)C(c2ccc(Cl)cc2)=N1` (stereo not drawn) [Compound 10e, (Z)—N—((E)-1-aminoethylidene)-3-(4-chlorophenyl)-N′-((4-cyanophenyl)sulfonyl)-4-phenyl-5,6-dihydropyridazine-1 (4H)-carboximidamide] the same measures were 0.338 µM, 0.077 µM and 43%.
As for `CC(C)/C(N)=N\C(=N\S(=O)(=O)c1ccc(C(F)(F)F)cc1)N1CCC(c2ccccc2)C(c2ccc(Cl)cc2)=N1` (stereo not drawn) [Compound 10m, (Z)—N—((E)-1-amino-2-methylpropylidene)-3-(4-chlorophenyl)-4-phenyl-N′-((4-(trifluoromethyl)phenyl)sulfonyl)-5,6-dihydropyridazine-1 (4H)-carboximidamide], the IC50 at Brain/CB1 was 0.151 µM. For the same compound, at CB1, the Ki came to 0.023 µM. For the same compound, on iNOS, the “iNOS inhibition % Response” value amounted to 55%.
For `N/C(=N\C(=N\S(=O)(=O)c1ccc(C(F)(F)F)cc1)N1CCC(c2ccccc2)C(c2ccc(Cl)cc2)=N1)C1CC1` (stereo not drawn) [Compound 10n, (Z)—N—((Z)-amino (cyclopropyl)methylene)-3-(4-chlorophenyl)-4-phenyl-N′-((4-(trifluoromethyl)phenyl)sulfonyl)-5,6-dihydropyridazine-1 (4H)-carboximidamide] the same measures were 0.211 µM, 0.044 µM and 55%.
In turn, `N/C(=N/C(=N/S(=O)(=O)c1ccc(C(F)(F)F)cc1)N1CCC(c2ccccc2)C(c2ccc(Cl)cc2)=N1)c1ccccc1Cl` (stereo not drawn) [Compound 10s, (Z)—N—((E)-amino (2-chlorophenyl)methylene)-3-(4-chlorophenyl)-4-phenyl-N′-((4-(trifluoromethyl)phenyl)sulfonyl)-5,6-dihydropyridazine-1 (4H)-carboximidamide] came in with a half-maximal inhibitory concentration (IC50) on Brain/CB1 of 0.019 µM. In addition, the inhibition constant (Ki) at CB1 is 0.0205 µM. Moreover, the “iNOS inhibition % Response” value at iNOS stood at 24%.
Take `N/C(=N\C(=N\S(=O)(=O)c1ccc(C(F)(F)F)cc1)N1CCC(c2ccccc2)C(c2ccc(F)cc2)=N1)c1ccccn1` (stereo not drawn) [Compound 10zf, (Z)—N—((Z)-amino (pyridin-2-yl)methylene)-3-(4-fluorophenyl)-4-phenyl-N′-((4-(trifluoromethyl)phenyl)sulfonyl)-5,6-dihydropyridazine-1 (4H)-carboximidamide]: the 50% inhibitory concentration (IC50) on Brain/CB1 was found to be 0.209 µM. Also, the inhibitory constant (Ki) on CB1 is 0.0417 µM.
With `CS/C(N)=N\C(=N\S(=O)(=O)c1ccc(C(F)(F)F)cc1)N1CCC(c2ccccc2)C(c2ccc(Cl)cc2)=N1` (stereo not drawn) [Compound 11b, methyl (Z)—N′—((Z)-(3-(4-chlorophenyl)-4-phenyl-5,6-dihydropyridazin-1 (4H)-yl)(((4-(trifluoromethyl)phenyl)sulfonyl)imino)methyl)carbamimidothioate], the IC50 at Brain/CB1 came out at 0.125 µM. Further, the inhibition constant Ki at CB1 was found to be 0.0867 µM. On iNOS, the “iNOS inhibition % Response” value is reported as 56%.
As for `CCS/C(N)=N\C(=N/S(=O)(=O)c1ccc(C(F)(F)F)cc1)N1CCC(c2ccccc2)C(c2ccc(Cl)cc2)=N1` (stereo not drawn) [Compound 11i, ethyl (Z)—N′—((E)-(3-(4-chlorophenyl)-4-phenyl-5,6-dihydropyridazin-1 (4H)-yl)(((4-(trifluoromethyl)phenyl)sulfonyl)imino)methyl)carbamimidothioate], on Brain/CB1, the half-inhibitory concentration (IC50) came to 0.64 µM. The Ki on CB1 is 0.0997 µM. For the same compound, the “iNOS inhibition % Response” value on iNOS was determined as 66%.
Consider `CS/C(N)=N/C(=N/S(=O)(=O)c1ccc(C(F)(F)F)cc1)N1CCC(c2ccccc2)C(c2ccc(F)cc2)=N1` (stereo not drawn) [Compound 11j, methyl (E)-N′—((Z)-(3-(4-fluorophenyl)-4-phenyl-5,6-dihydropyridazin-1 (4H)-yl)(((4-(trifluoromethyl)phenyl)sulfonyl)imino)methyl)carbamimidothioate], for which the IC50 on Brain/CB1 is more than 1 µM. Besides, the Ki at CB1 was 0.093 µM.
As to `C[Se]/C(N)=N\C(=N\S(=O)(=O)c1ccc(C(F)(F)F)cc1)N1CCC(c2ccccc2)C(c2ccc(Cl)cc2)=N1` (stereo not drawn) [Compound 12b, methyl (Z)—N′—((Z)-(3-(4-chlorophenyl)-4-phenyl-5,6-dihydropyridazin-1 (4H)-yl)(((4-(trifluoromethyl)phenyl)sulfonyl)imino)methyl)carbamimidoselenoate], at CB1, the inhibition constant Ki is 0.114 µM. The “iNOS inhibition % Response” value on iNOS came out at 64%.
On Brain/CB1, `N#Cc1ccc(S(=O)(=O)/N=C(/N=C2\CCCCN2)N2CCC(c3ccccc3)C(c3ccc(Cl)cc3)=N2)cc1` (stereo not drawn) [Compound 13b, (Z)-3-(4-chlorophenyl)-N′-((4-cyanophenyl)sulfonyl)-4-phenyl-N—((E)-piperidin-2-ylidene)-5,6-dihydropyridazine-1 (4H)-carboximidamide] yielded an IC50 of 0.325 µM. The Ki on CB1 was 0.0198 µM.
At Brain/CB1, `O=S(=O)(/N=C(/N=C1\CCCCN1)N1CCC(c2ccccc2)C(c2ccc(Cl)cc2)=N1)c1ccc2ccccc2c1` (stereo not drawn) [Compound 15, (Z)-3-(4-chlorophenyl)-N′-(naphthalen-2-ylsulfonyl)-4-phenyl-N—((E)-piperidin-2-ylidene)-5,6-dihydropyridazine-1 (4H)-carboximidamide] had a concentration for half-maximal inhibition (IC50) of 0.287 µM. For the same compound, the Ki on CB1 was found to be 0.0341 µM.
On Brain/CB1, `O=S(=O)(/N=C(/N=C1\CCCCN1)N1CCC(c2ccccc2)C(c2ccc(Cl)cc2)=N1)c1ccc(C(F)(F)F)cc1` (stereo not drawn) [Compound 16, (Z)-3-(4-chlorophenyl)-4-phenyl-N—((E)-piperidin-2-ylidene)-N′-((4-(trifluoromethyl)phenyl)sulfonyl)-5,6-dihydropyridazine-1 (4H)-carboximidamide] registered a 50% inhibitory concentration (IC50) of 0.104 µM. The Ki on CB1 came out at 0.026 µM. The “iNOS inhibition % Response” value on iNOS stood at 51%.
The compound `COC(=O)CN/C(=N/S(=O)(=O)c1ccc(C(F)(F)F)cc1)N1CCC(c2ccccc2)C(c2ccc(Cl)cc2)=N1` (stereo not drawn) [Compound 23, methyl (Z)-((3-(4-chlorophenyl)-4-phenyl-5,6-dihydropyridazin-1 (4H)-yl)(((4-(trifluoromethyl)phenyl)sulfonyl)imino)methyl)glycinate] returned an IC50 at Brain/CB1 of 0.0081 µM. The Ki at CB1 is 0.00437 µM.
The like results for `NC(=O)CN/C(=N/S(=O)(=O)c1ccc(C(F)(F)F)cc1)N1CCC(c2ccccc2)C(c2ccc(Cl)cc2)=N1` (stereo not drawn) [Compound 24, (Z)-2-(3-(4-chlorophenyl)-4-phenyl-N′-((4-(trifluoromethyl)phenyl)sulfonyl)-1,4,5,6-tetrahydropyridazine-1-carboximidamido)acetamide] were, in that order, 0.033 µM and 0.01 µM.
At Brain/CB1, `NC(=O)CN/C(=N/S(=O)(=O)c1ccc(Cl)cc1)N1CCC(c2ccccc2)C(c2ccc(Cl)cc2)=N1` (stereo not drawn) [Compound 25, (Z)-2-(3-(4-chlorophenyl)-N′-((4-chlorophenyl)sulfonyl)-4-phenyl-1,4,5,6-tetrahydropyridazine-1-carboximidamido)acetamide] showed an IC50 of 0.207 µM. In addition, the Ki at CB1 was 0.0411 µM.
`C/C(N)=N\C(=N\S(=O)(=O)c1ccc(C)cc1)N1CCC(c2ccccc2)C(c2ccc(Cl)cc2)=N1` (stereo not drawn) [Compound 101, (Z)—N—((E)-1-aminoethylidene)-3-(4-chlorophenyl)-4-phenyl-N′-tosyl-5,6-dihydropyridazine-1 (4H)-carboximidamide] displayed a half-maximal inhibitory concentration (IC50) on Brain/CB1 of more than 1 µM. Also, at CB1, the Ki was found to be 0.084 µM.
For the compound `C/C(N)=N\C(=N\S(=O)(=O)c1ccc(C(F)(F)F)cc1)N1CCC(c2ccccc2)C(c2ccc(Cl)cc2)=N1` (stereo not drawn) [drawing 16], the “% Response (Inducible NOS)” value on iNOS was 64%.
Still for that read-out and setting: for `CS/C(N)=N\C(=N\S(=O)(=O)c1ccc(C(F)(F)F)cc1)N1CCC(c2ccccc2)C(c2ccc(Cl)cc2)=N1` (stereo not drawn) [drawing 17] the value was 56%; for `C[Se]/C(N)=N\C(=N\S(=O)(=O)c1ccc(C(F)(F)F)cc1)N1CCC(c2ccccc2)C(c2ccc(Cl)cc2)=N1` (stereo not drawn) [drawing 18], 64%.
